# In patent publication US20170298051A1, “ACTIVATOR OF ADIPONECTIN RECEPTOR” (THE UNIVERSITY OF TOKYO, priority 2013, published 2017):
# Biological target: T1, AdipoR1 (Homo sapiens, UniProt Q96A54)
# T1 sequence (Q96A54 1-375): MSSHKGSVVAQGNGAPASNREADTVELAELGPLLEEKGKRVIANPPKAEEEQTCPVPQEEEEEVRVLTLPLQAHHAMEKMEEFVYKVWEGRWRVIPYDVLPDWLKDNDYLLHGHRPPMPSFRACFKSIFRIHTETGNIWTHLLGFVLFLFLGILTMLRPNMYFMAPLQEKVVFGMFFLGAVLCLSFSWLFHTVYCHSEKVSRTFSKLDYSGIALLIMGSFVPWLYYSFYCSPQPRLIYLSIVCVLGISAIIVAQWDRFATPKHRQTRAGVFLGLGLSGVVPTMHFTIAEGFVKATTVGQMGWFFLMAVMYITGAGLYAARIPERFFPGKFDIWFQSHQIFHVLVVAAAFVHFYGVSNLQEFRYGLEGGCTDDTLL
# Test: Measurement of AMPK phosphorylation ability (Assay 1), HEK 293T cells, Western blotting
# Assay type: cell-based
# Set-up: HEK 293T cells (ATCC; CRL-3216, medium; host or cells: HEK 293T
# Conditions: 10 minutes
# Protocol: The AMPK phosphorylation ability of the respective compounds according to the present invention was measured by using differentiated C2C12 cells or HEK 293T cells.
# HEK 293T cells (ATCC; CRL-3216, medium; DMEM, Fetal Bovine Serum (FBS)) were cultured in a 12- or 24-well plate until they reached 100% confluency (37° C., 5% CO2).
# After starvation, a test compound listed in Tables 10 and 11 (concentration: 25 μM, 50 μM) was added thereto, and after 10 minutes, the medium was discarded and the plate was frozen with liquid nitrogen.
# To the 12- or 24-well cell plate which had been frozen was added 100 or 150 μL of Cell lysis buffer pH 7.4 (50 mM HEPES (pH 7.4), 2 mM sodium orthovanadate, 10 mM sodium pyrophosphate, 10 mM NaF, 2 mM EDTA, 2 mM EGTA, 0.1% (v/v) NP-40, 0.2 mM PMSF), and the cells were scraped off with a cell scraper, suspended and transferred into a micro centrifugal tube. And then, the cells were ultrasonically crushed (1 second×3 times) with a sonicator. Centrifugation was performed at 4° C. at 15,000 rpm for 15 minutes, and the supernatant was recovered into a new tube.
# To 100 μL of the supernatant was added 25 μL of 5× sample buffer (280 mM Tris-HCl (pH 6.9), 40% glycerol, 10% (3-mercaptoethanol, 13% SDS, a small amount of bromophenol blue) and mixed together. The rest of the supernatant was used for protein quantification, and the protein concentrations were uniformed by adding 1× sample buffer depending on the concentration of each sample.
# An electrophoresis chamber was filled with 1× SDS buffer (25 mM Tris-HCl, 250 mM glycine, 0.1% SDS), and the sample was applied to a well of polyacrylamide gel. Electrophoresis was performed until the bromophenol blue in the sample reached to the bottom of the gel.
# A filter paper was soaked in 1× Transfer buffer sufficiently, above which the PVDF membrane and the gel after electrophoresis were stacked in this order, and thereabove a filter paper which had been soaked in 1× Transfer buffer sufficiently was further stacked, from which an air was removed and the resultant was set in semi-dry type transfer apparatus and transferred (7V, 35 minutes).
# An unnecessary portion of the blotted membrane was cutoff, and the rest was immediately soaked in blocking buffer (5% skimmed milk in Rinse buffer), and shaken at room temperature at 40 rpm for 3 hours.
# After blocking, the membrane was transferred into Rinse buffer, and washed at room temperature for 10 minutes while shaking. The membrane was soaked in a primary antibody solution (AMPK alpha Antibody (Cell signaling; #2532) 1/1,000 in Rinse buffer, Phospho-AMPK alpha (Thr172) (40H9) antibody (Cell signaling; #2535) 1/1,000 in Rinse buffer), and shaken at 4° C. at 40 rpm overnight.
# The membrane was soaked in a secondary antibody solution (goat anti-rabbit IgG-HRP Antibody (Santa Cruz; sc-2030) 1/2,000 in Rinse buffer), and shaken at room temperature at 40 rpm for 1 hour.
# After the membrane was washed for 45 minutes in the same way as after the primary antibody reaction, the membrane was soaked in a chemiluminescent reaction solution (ECL Western Blotting Detection Reagents, GE Healthcare) for about 1 minute. An excess of the reaction solution was removed, and then the membranes were arranged on a transparent film and sandwiched with it, with which an X-ray film was exposed in a darkroom (for about several seconds to 60 seconds) to develop the film.
# The X-ray film was scanned to take the image, for which the band was measured by using the image analysis software “Image J” to determine the respective amounts of pAMPK and AMPK.
Structure (SMILES),pAMPK/AMPK (%) (25 μM),pAMPK/AMPK (%) (50 μM)
COc1ccccc1CN1CCN(C(=O)CCNC(=O)c2ccc3ccccc3c2)CC1 [Compound 71],78.18%,65.40%
COc1ccc(CN2CCN(C(=O)CCNC(=O)c3ccc(F)cc3F)CC2)cc1OC [Compound 62],72.75%,80.92%
Cc1ccccc1CN1CCC(NC(=O)COc2ccc(C(C)C)cc2)CC1 [Compound 1],70.10%,63.92%
CCC(=O)c1ccc(OCC(=O)NC2CCN(Cc3ccccc3C)CC2)cc1 [Compound 16],55.49%,46.30%
CC(=O)c1ccc(OCC(=O)NC2CCN(Cc3ccccc3)CC2C)cc1 (stereo not shown) [Compound 14],63.62%,51.87%
CC(C)c1ccc(OCC(=O)NC2CCN(C(C)c3ccccc3)CC2)cc1 (stereo not shown) [Compound 2],77.78%,90.47%
CCOc1ccc(OCC(=O)NC2CCN(Cc3ccccc3C)CC2)cc1 [Compound 39],64.98%,61.18%
CC(C)(C)c1ccc(OCC(=O)NC2CCN(Cc3ccc(F)cc3)CC2)cc1 [Compound 6],24.57%,60.56%
CC(c1ccccc1)N1CCC(NC(=O)COc2ccc(C(F)(F)F)cc2)CC1 (stereo not shown) [Compound 9],23.69%,62.46%
Cc1cccc(CN2CCC(NC(=O)COc3ccc(C4SCCCS4)cc3)CC2)c1 [Compound 28],71.21%,78.89%
CCC(=O)c1ccc(OCC(=O)NC2CCN(Cc3ccccc3)CC2C)cc1 (stereo not shown) [Compound 18],59.58%,72.81%
COc1ccc(CN2CCN(C(=O)CCNC(=O)c3ccccc3)CC2)c(OC)c1OC [Compound 51],33.33%,55.14%
COc1cccc(C(=O)N2CCN(CCC(=O)NC3CC3)CC2)c1 [Compound 72],42.05%,46.92%
COc1ccc(CN2CCC(NC(=O)COc3ccc([N+](=O)[O-])cc3)CC2)cc1F [Compound 24],23.68%,60.46%
CCCOc1ccc(OCC(=O)NC2CCN(Cc3ccccc3)C(C)C2)cc1 (stereo not shown) [Compound 41],62.03%,69.38%
COc1ccc(CN2CCN(C(=O)CCNC(=O)c3ccc(Br)cc3)CC2)cc1OC [Compound 59],74.09%,78.14%
CCCOc1ccc(OCC(=O)NC2CCN(C(C)c3ccccc3)CC2)cc1 (stereo not shown) [Compound 43],77.13%,82.95%
O=C(COc1ccc(Oc2ccccn2)cc1)NC1CCN(Cc2ccccc2)CC1 [Compound 45],67.44%,82.01%
COc1cc(C(C)=O)ccc1OCC(=O)NC1CCN(C(C)c2ccccc2)CC1 (stereo not shown) [Compound 13],40.65%,39.95%

# The next lines start with the values.
pAMPK/AMPK (%) (25 μM),pAMPK/AMPK (%) (50 μM),Structure (SMILES)
57.51%,33.78%,O=C(NCCC(=O)N1CCN(Cc2cccc(O)c2)CC1)c1ccc(Cl)cc1 [Compound 54]
41.20%,62.58%,COc1ccccc1CN1CCN(C(=O)CCNC(=O)c2ccc(Br)cc2)CC1 [Compound 58]
61.64%,105.20%,O=C(NCCC(=O)N1CCN(Cc2ccc(F)cc2Cl)CC1)c1ccc(Cl)cc1 [Compound 55]
30.26%,45.31%,COc1ccccc1CN1CCN(C(=O)CCNC(=O)c2ccc(Cl)cc2)CC1 [Compound 57]
40.07%,42.87%,O=C(COc1ccc(N2CCCC2=O)cc1)NC1CCN(C(=O)c2ccccc2F)CC1 [Compound 25]
69.72%,62.88%,CCc1ccc(OCC(=O)NC2CCN(Cc3ccc(OC)c(F)c3)CC2)cc1 [Compound 5]
45.54%,37.30%,CCOc1ccc(C(=O)N2CCC(NC(=O)COc3ccc(N4CCCC4=O)cc3)CC2)cc1 [Compound 27]
78.20%,76.51%,CCOc1ccc(CN2CCN(C(=O)CCNC(=O)c3ccc(F)cc3Cl)CC2)cc1 [Compound 61]
49.23%,40.38%,O=C(NCCC(=O)N1CCN(Cc2cccc(O)c2)CC1)c1ccc(Br)cc1 [Compound 56]
39.02%,44.32%,Cc1cc(OCC(=O)NC2CCN(C(N)=O)CC2)ccc1C(C)C [Compound 3]
53.92%,45.94%,COc1ccc(CN2CCN(C(=O)CCNC(=O)c3ccc([N+](=O)[O-])cc3)CC2)cc1F [Compound 68]
47.30%,60.30%,NC(=O)c1ccc(OCC(=O)NC2CCN(Cc3ccc(F)c(F)c3)CC2)cc1 [Compound 20]
42.40%,34.07%,COc1ccccc1CN1CCN(C(=O)CCNC(=O)c2ccccc2C)CC1 [Compound 49]
88.72%,75.82%,CCC(=O)c1ccc(OCC(=O)NC2CCN(Cc3ccc(Cl)c(Cl)c3)CC2)cc1 [Compound 17]
65.40%,68.22%,Cc1ccccc1CN1CCN(C(=O)CCNC(=O)c2ccc([N+](=O)[O-])cc2)CC1 [Compound 63]
51.41%,49.81%,CCOc1ccccc1C(=O)N1CCC(NC(=O)OCc2ccc([N+](=O)[O-])cc2)CC1 [Compound 23]
34.44%,76.81%,COc1ccc(CN2CCN(C(=O)CCNC(=O)c3ccc(Cl)cc3)CC2)c(OC)c1OC [Compound 60]
79.86%,94.13%,CC(c1ccccc1)N1CCC(NC(=O)COc2ccc(-c3ccccc3)cc2)CC1 (stereo not shown) [Compound 7]
39.00%,71.13%,COc1ccc(CN2CCN(C(=O)CCNC(=O)c3ccccc3C)CC2)cc1OC [Compound 50]
62.79%,69.84%,COc1ccc(CN2CCN(C(=O)CCNC(=O)c3ccc([N+](=O)[O-])cc3)CC2)cc1 [Compound 65]
66.63%,85.17%,CC(C)(C)c1ccc(C(=O)NCCC(=O)N2CCN(Cc3cccc(O)c3)CC2)cc1 [Compound 52]
43.00%,55.80%,COc1ccc(OC)c(CN2CCN(C(=O)CCNC(=O)c3ccc([N+](=O)[O-])cc3)CC2)c1 [Compound 66]
77.49%,72.23%,Cc1ccc(C(=O)N2CCC(NC(=O)COc3ccc(C(F)(F)F)cc3)CC2)cc1 [Compound 8]
70.98%,70.70%,O=C(NCCC(=O)N1CCN(Cc2cccc(C(F)(F)F)c2)CC1)c1ccc([N+](=O)[O-])cc1 [Compound 67]
83.62%,72.56%,O=C(COc1ccc(I)cc1)NC1CCN(Cc2ccccc2)CC1 [Compound 10]
